Results as given in PubChem BioAssay AID256 (DTP/NCI, 2004).
Values joined by “and” are separate entries in the source; they are usually repeats but may differ in a detail not shown here. Identical values can stand only once. Toxic doses and inconclusive results are not listed.

Tested on: CD2F1 mice, L1210 leukemia ip, survival T/C
Assay: NCI In Vivo Anticancer Drug Screen. Data for tumor model L1210 Leukemia (intraperitoneal) in CD2F1 (CDF1) mice
Details: higher = longer survival
Procedure, shortened: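 Mice carrying a transplanted tumor received test compound or vehicle alone. The value is the measurement in the treated group divided by that in the vehicle-treated control group.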

[1] = endpoint: mean survival time, dose: 50.0 mg/kg/injection, schedule: Q01DX009 (ip), vehicle: saline
[2] = endpoint: mean survival time, dose: 50.0 mg/kg/injection, schedule: Q04DX003 (ip), vehicle: saline
[3] = endpoint: mean survival time, dose: 100.0 mg/kg/injection, schedule: Q01DX009 (ip), vehicle: saline
[4] = endpoint: mean survival time, dose: 100.0 mg/kg/injection, schedule: Q04DX003 (ip), vehicle: saline
[5] = endpoint: mean survival time, dose: 200.0 mg/kg/injection, schedule: Q04DX003 (ip), vehicle: saline
[6] = endpoint: mean survival time, dose: 100.0 mg/kg/injection, schedule: Q04DX002 (ip), vehicle: saline with Tween-80
[7] = endpoint: mean survival time, dose: 200.0 mg/kg/injection, schedule: Q04DX002 (ip), vehicle: saline with Tween-80
[8] = endpoint: mean survival time, dose: 200.0 mg/kg/injection, schedule: Q01DX009 (ip), vehicle: saline
[9] = endpoint: mean survival time, dose: 100.0 mg/kg/injection, schedule: Q04DX003 (ip), vehicle: saline with Tween-80
[10] = endpoint: mean survival time, dose: 100.0 mg/kg/injection, schedule: Q01DX009 (ip), vehicle: saline with Tween-80
[11] = endpoint: mean survival time, dose: 400.0 mg/kg/injection, schedule: Q04DX002 (ip), vehicle: saline with Tween-80
[12] = endpoint: mean survival time, dose: 200.0 mg/kg/injection, schedule: Q01DX009 (ip), vehicle: saline with Tween-80
[13] = endpoint: mean survival time, dose: 200.0 mg/kg/injection, schedule: Q04DX003 (ip), vehicle: saline with Tween-80
[14] = endpoint: mean survival time, dose: 400.0 mg/kg/injection, schedule: Q01DX009 (ip), vehicle: saline with Tween-80
[15] = endpoint: mean survival time, dose: 400.0 mg/kg/injection, schedule: Q04DX003 (ip), vehicle: saline with Tween-80

O=S(=O)(O)c1ccc(-c2ccc(S(=O)(=O)O)cc2)cc1 (tested in a mixture with another compound)
T/C (endpoint: mean survival time, dose: 6.3 mg/kg/injection, schedule: Q01DX009 (ip), vehicle: saline): 95 % of control | T/C (endpoint: mean survival time, dose: 6.3 mg/kg/injection, schedule: Q04DX003 (ip), vehicle: saline): 121 % of control and 108 % of control | T/C (endpoint: mean survival time, dose: 12.0 mg/kg/injection, schedule: Q01DX001 (ip), vehicle: saline): 118 % of control | T/C (endpoint: mean survival time, dose: 12.5 mg/kg/injection, schedule: Q01DX001 (ip), vehicle: saline): 117 % of control and 123 % of control | T/C (endpoint: mean survival time, dose: 12.5 mg/kg/injection, schedule: Q01DX009 (ip), vehicle: saline): 150 % of control | T/C (endpoint: mean survival time, dose: 12.5 mg/kg/injection, schedule: Q04DX003 (ip), vehicle: saline): 122 % of control | T/C (endpoint: mean survival time, dose: 25.0 mg/kg/injection, schedule: Q01DX009 (ip), vehicle: saline): 162 % of control and 172 % of control and 180 % of control | T/C (endpoint: mean survival time, dose: 50.0 mg/kg/injection, schedule: Q01DX001 (ip), vehicle: saline): 150 % of control | T/C [1]: 115 % of control and 205 % of control and 342 % of control | T/C [2]: 160 % of control and 190 % of control and 205 % of control | T/C (endpoint: mean survival time, dose: 75.0 mg/kg/injection, schedule: Q04DX003 (ip), vehicle: saline): 195 % of control | T/C [3]: 100 % of control and 102 % of control | T/C [4]: 248 % of control and 275 % of control and 489 % of control | T/C (endpoint: mean survival time, dose: 150.0 mg/kg/injection, schedule: Q04DX003 (ip), vehicle: saline): 217 % of control | T/C [5]: 120 % of control

NC(=S)N/N=C/c1ccc(OC(F)(F)F)cn1
T/C (endpoint: mean survival time, dose: 1.56 mg/kg/injection, schedule: Q01DX009 (ip), vehicle: other): 104 % of control | T/C (endpoint: mean survival time, dose: 3.13 mg/kg/injection, schedule: Q01DX009 (ip), vehicle: other): 100 % of control | T/C (endpoint: mean survival time, dose: 6.25 mg/kg/injection, schedule: Q01DX009 (ip), vehicle: other): 108 % of control | T/C (endpoint: mean survival time, dose: 12.5 mg/kg/injection, schedule: Q01DX009 (ip), vehicle: other): 118 % of control | T/C (endpoint: mean survival time, dose: 25.0 mg/kg/injection, schedule: Q04DX002 (ip), vehicle: other): 89 % of control | T/C (endpoint: mean survival time, dose: 50.0 mg/kg/injection, schedule: Q04DX002 (ip), vehicle: other): 104 % of control | T/C (endpoint: mean survival time, dose: 100.0 mg/kg/injection, schedule: Q04DX002 (ip), vehicle: other): 115 % of control

CN(C)C(SCc1ccccc1)=[N+](C)C
T/C [6]: 105 % of control | T/C [7]: 94 % of control

O=C(NNc1cccc(Cl)c1)C(O)C(O)C(O)C(O)CO (configuration not stated)
T/C [1]: 93 % of control | T/C [3]: 108 % of control | T/C [8]: 96 % of control

Cc1ccc(Cl)cc1NC(=O)c1ccc([N+](=O)[O-])cc1
T/C [9]: 90 % of control

C=CCOP(=O)(OCC=C)C1(Cl)C(Cl)=C(Cl)C(=O)C(Cl)=C1Cl
T/C (endpoint: mean survival time, dose: 25.0 mg/kg/injection, schedule: Q01DX009 (ip), vehicle: saline + alcohol): 96 % of control | T/C (endpoint: mean survival time, dose: 50.0 mg/kg/injection, schedule: Q01DX009 (ip), vehicle: saline + alcohol): 96 % of control | T/C (endpoint: mean survival time, dose: 100.0 mg/kg/injection, schedule: Q01DX009 (ip), vehicle: saline + alcohol): 96 % of control | T/C [10]: 100 % of control

O=C1c2ccccc2C(=O)c2c(NCCN3CCCCC3)ccc(NCCN3CCCCC3)c21
T/C (endpoint: mean survival time, dose: 8.0 mg/kg/injection, schedule: Q01DX009 (ip), vehicle: acid diluted with saline): 100 % of control | T/C (endpoint: mean survival time, dose: 16.0 mg/kg/injection, schedule: Q01DX009 (ip), vehicle: acid diluted with saline): 102 % of control | T/C (endpoint: mean survival time, dose: 32.0 mg/kg/injection, schedule: Q01DX009 (ip), vehicle: acid diluted with saline): 110 % of control | T/C (endpoint: mean survival time, dose: 64.0 mg/kg/injection, schedule: Q01DX009 (ip), vehicle: acid diluted with saline): 104 % of control

CCCCN=C(N)CCl
T/C (endpoint: mean survival time, dose: 25.0 mg/kg/injection, schedule: Q04DX002 (ip), vehicle: saline): 100 % of control | T/C (endpoint: mean survival time, dose: 50.0 mg/kg/injection, schedule: Q04DX002 (ip), vehicle: saline): 100 % of control | T/C (endpoint: mean survival time, dose: 100.0 mg/kg/injection, schedule: Q04DX002 (ip), vehicle: saline): 100 % of control and 111 % of control

Cc1ccn2c(=O)c(CCBr)c(C)nc2c1
T/C (endpoint: mean survival time, dose: 75.0 mg/kg/injection, schedule: Q01DX001 (ip), vehicle: saline): 96 % of control

Ic1ncnc2c1ncn2C1CCCO1 (configuration not stated)
T/C [2]: 96 % of control | T/C [4]: 94 % of control | T/C [5]: 94 % of control

COC(=O)c1ccccc1I
T/C [6]: 107 % of control | T/C [7]: 96 % of control | T/C [11]: 107 % of control

Clc1nc(Cl)nc(-c2cn(-c3ccccc3)c3ccccc23)n1
T/C [10]: 95 % of control | T/C [9]: 89 % of control | T/C [12]: 95 % of control | T/C [13]: 97 % of control | T/C [14]: 96 % of control | T/C [15]: 98 % of control

COC(=O)CC1(C(=O)OC)NC(=O)c2cc(OC)c(Cl)cc2N1 (configuration not stated)
T/C (endpoint: mean survival time, dose: 100.0 mg/kg/injection, schedule: Q01DX001 (ip), vehicle: saline with Tween-80): 88 % of control | T/C [6]: 96 % of control | T/C (endpoint: mean survival time, dose: 200.0 mg/kg/injection, schedule: Q01DX001 (ip), vehicle: saline with Tween-80): 94 % of control | T/C [7]: 96 % of control | T/C (endpoint: mean survival time, dose: 400.0 mg/kg/injection, schedule: Q01DX001 (ip), vehicle: saline with Tween-80): 95 % of control | T/C [11]: 86 % of control

NC(=O)C(CO)NC(=O)OCc1ccccc1 (configuration not stated)
T/C (endpoint: mean survival time, dose: 25.0 mg/kg/injection, schedule: Q01DX005 (ip), vehicle: water): 103 % of control | T/C (endpoint: mean survival time, dose: 50.0 mg/kg/injection, schedule: Q01DX005 (ip), vehicle: water): 104 % of control | T/C (endpoint: mean survival time, dose: 100.0 mg/kg/injection, schedule: Q01DX005 (ip), vehicle: water): 95 % of control | T/C (endpoint: mean survival time, dose: 200.0 mg/kg/injection, schedule: Q01DX005 (ip), vehicle: water): 97 % of control | T/C (endpoint: mean survival time, dose: 400.0 mg/kg/injection, schedule: Q01DX005 (ip), vehicle: water): 93 % of control

COC(=O)c1ccccc1NC(=O)/C=C/C(=O)O
T/C [1]: 94 % of control | T/C [3]: 88 % of control | T/C [9]: 98 % of control | T/C [8]: 90 % of control | T/C [13]: 95 % of control

CCO/C=C1\SC(=S)N(c2ccccc2C)C1=O
T/C [10]: 106 % of control and 111 % of control | T/C [9]: 103 % of control | T/C [12]: 103 % of control and 106 % of control | T/C [13]: 108 % of control | T/C [14]: 88 % of control | T/C [15]: 113 % of control

COc1ccc(CC(N)C(=O)O)cc1N(CCCl)CCCl (configuration not stated)
T/C (endpoint: mean survival time, dose: 3.2 mg/kg/injection, schedule: Q01DX001 (ip), vehicle: carboxymethylcellulose (CMC)): 122 % of control

CCCCOc1cc(C(=O)NCCN(CC)CC)c2ccccc2n1
T/C (endpoint: mean survival time, dose: 6.25 mg/kg/injection, schedule: Q01DX009 (ip), vehicle: saline with Tween-80): 102 % of control | T/C (endpoint: mean survival time, dose: 12.5 mg/kg/injection, schedule: Q01DX009 (ip), vehicle: saline with Tween-80): 108 % of control | T/C (endpoint: mean survival time, dose: 25.0 mg/kg/injection, schedule: Q01DX009 (ip), vehicle: saline with Tween-80): 103 % of control

C[n+]1c(-c2ccc(/C=N/NC(=O)c3ccc(C(=O)N/N=C/c4ccc(-c5cn6ccccc6[n+]5C)cc4)cc3)cc2)cn2ccccc21
T/C (endpoint: median survival time, dose: 25.0 mg/kg/injection, schedule: Q01DX005 (ip), vehicle: saline with Tween-80): 162 % of control | T/C (endpoint: median survival time, dose: 43.2 mg/kg/injection, schedule: Q01DX005 (ip), vehicle: saline with Tween-80): 200 % of control | T/C (endpoint: median survival time, dose: 72.0 mg/kg/injection, schedule: Q01DX005 (ip), vehicle: saline with Tween-80): 362 % of control | T/C (endpoint: median survival time, dose: 100.0 mg/kg/injection, schedule: Q01DX005 (ip), vehicle: saline with Tween-80): 307 % of control | T/C (endpoint: median survival time, dose: 120.0 mg/kg/injection, schedule: Q01DX005 (ip), vehicle: saline with Tween-80): 375 % of control | T/C (endpoint: median survival time, dose: 200.0 mg/kg/injection, schedule: Q01DX005 (ip), vehicle: saline with Tween-80): 329 % of control and 375 % of control | T/C (endpoint: median survival time, dose: 333.33 mg/kg/injection, schedule: Q01DX005 (ip), vehicle: saline with Tween-80): 162 % of control | T/C (endpoint: median survival time, dose: 400.0 mg/kg/injection, schedule: Q01DX005 (ip), vehicle: saline with Tween-80): 329 % of control

O=c1[nH]nc(-c2cccc3ccccc23)c2ccccc12
T/C [9]: 97 % of control | T/C [13]: 94 % of control | T/C [15]: 97 % of control

Cc1ccccc1NC(=O)Oc1ccc(C(C)(C)C)cc1
T/C [6]: 97 % of control | T/C [7]: 86 % of control | T/C [11]: 89 % of control
